Two molecules from ChEMBL document CHEMBL5360587, “Differentiation-Promoting Effects of Okeaniamides A and B from an Okeania sp. Marine Cyanobacterium on Preadipocytes” (J Nat Prod, 2023) can be followed below.

For series [1], the system named is 3T3-L1. In words: Induction of adipogenesis in mouse 3T3-L1 cells assessed as increase in lipid droplets formation incubated with media replacement for every 3 days and measured at day 9 in presence of insulin by Oil Red O staining based analysis. It is filed as functional, cell-based. Particulars: dose 1-10 µM, time 9.0 day.
The subject of series [2] is 3T3-L1. Put plainly: Induction of adipogenesis in mouse 3T3-L1 cells assessed as fold increase in OD value at 10 uM incubated with media replacement for every 3 days and measured for day 9 in presence of insulin by Oil Red O staining based analysis. The format is functional. Conditions: time 9 day.
Series [3] relates to 3T3-L1. Put plainly: Cytotoxicity against mouse 3T3-L1 cells assessed as reduction in cell viability at 10 uM incubated for 3 days by MTT assay. The format is toxicity, cell-based. Particulars: 3t3-l1, 72 h, time 3 day. On the technique in general: Tetrazolium dyes change colour on reduction, which living cells bring about.

`CCCCCC/C=C/C/C(C)=C/[C@@H](C/C=C/CCC(=O)N(C)[C@@H](COC)C(=O)N1CCC[C@H]1C(=O)CC)OC`: the Activity entry with 3T3-L1 [1] was “Dose-Dependent Effect”; in the series on 3T3-L1 [3], “Non-Toxic”. The “fold change (FC)” value in the series with 3T3-L1 [2] was 2.1.

For the molecule `CCCCCCCCC/C(C)=C/[C@@H](C/C=C/CCC(=O)N(C)[C@@H](COC)C(=O)N1CCC[C@H]1C(C)=O)OC`, the Activity result is “Dose-Dependent Effect” with 3T3-L1 [1] and “Non-Toxic” with 3T3-L1 [3]. Moreover, in the series with 3T3-L1 [2], the “fold change (FC)” value is reported as 2.3.
